Like-named read-outs stand apart in the source and are kept apart here.
Key:
[1] = test system: NCI-ES-0808; experiment: Cell growth/viability assay, calcitriol with or without chemotherapy drug; assay type: cell-based
[2] = test system: Primary human epidermal keratinocytes (HEKa); experiment: Real-time PCR array, Neuroscience and Ion Channels Array, calcitriol-treated HEKa; assay type: cell-based; details: HEKa cells, 0.1 μg/mL calcitriol, three independent experiments
Procedure: (§1) Changes in mRNA levels were evaluated using real-time PCR quantification to assess mRNA levels in preselected subsets containing 80 pathway specific targets (see Appendix). The PCR array analysis utilized two groups of genes—those related to Heat Shock Proteins (SABiosciences), and those related to Neuroscience Ion Channels and Transporters (SABioscience). Primary human epidermal keratinocytes (HEKa) were maintained in Epilife Medium (Cascade Biologics, Inc., Portland Oreg.) along with Human Keratinocyte Growth Supplement (Cascade Biologics, Inc., Portland Oreg.). […] Vehicle control group of cells were treated with 5 mL media containing 1 μL of ethanol. Cells were harvested 3, 6, 16, 24, 48, or 72 hours after the start of the treatment. Cells were lysed for RNA isolation at different treatment times using the RNeasy Mini kit (Qiagen, Inc., Valencia Calif.) following the manufacturer's instructions. RNA was quantified by measuring optical density at 260 nm. First Strand Synthesis: […] Products from the first strand synthesis were diluted with water, mixed with the SYBR green master mix (SABiosciences, Frederick Md.) and loaded onto PCR arrays. Real time PCR was run on the PCR Arrays (Heat Shock Protein Arrays, and Neuroscience and Ion Channel Arrays) (SABiosciences, Frederick Md.) on a Biorad CFX96. Data analyses were performed using the PCR array data analysis software available on the SABiosciences website.

[3] = test system: MIAC51 (chloroleukemia cells); experiment: Rats transplanted with chloroleukemia: protection of cancer cells from chemotherapy; assay type: in vivo; details: Long Evans rats injected with MIAC51, cyclophosphamide; preliminary results
Procedure: For experiments in which rats were transplanted with chloroleukemia, on Day 5 after birth, rats were randomly divided into three groups of 45 each. All rats received 1×10^5 chloroleukemic cell line MIAC51 (i.p.) in 0.1 mL of serum free (SF) RPMI. MIAC51 were cultured in RPMI 1640 supplemented with L-glutamine and 10% fetal bovine serum at 37° C. in a 5% CO2, 100% humidity incubator. Cells were grown to 50% confluency (1.5×106 mL) collected in 50 mL conical tubes, centrifuged at 600 g×10 min. at room temperature and resuspended in SF-RPMI at a concentration of 1×10^6/mL. Group 1 rats received no further treatment. Group 2 rats received topical vehicle and CTX on day 13. […] Topical applications were performed as described above.
On day 23 after birth, a sample of blood was taken from all rats and differentials performed. Rats with leukemia were sacrificed, rats without leukemia were kept and a second differential performed on day 31, at any point if leukemia was detected, animals were sacrificed by CO2 asphyxiation.

[4] = test system: Primary human epidermal keratinocytes (HEKa); experiment: Real-time PCR array, Heat Shock Protein Array, calcitriol-treated HEKa; assay type: cell-based; details: HEKa cells, 0.1 μg/mL calcitriol
Procedure: as §1

[5] = test system: HEKa cells; experiment: Protective effect of calcitriol on HEKa cells against chemotherapeutic drugs; assay type: cell-based, human; details: 0.1 μg/mL calcitriol
Procedure: These include: erlotinib (Tarceva), an EGFR Tyr kinase inhibitor; gefutubib (Iressa), an EGFR Tyr kinase inhibitor; sorafenib, inhibitor of several Tyr kinases (Raf, VEGF-R2, c-kit, PDGR-R); Dasatinib, a BCR/ABL Tyr kinase inhibitor; and staurosporin, a relatively nonspecific kinase inhibitor.
The drug treatment period was usually three days. At the end of the three days, the background OD of the 96-well plate was read at 280 nm, before 20 μL of the “Substrate Cell Titer 96 Aqueous One Solution Reagent” (Promega) was added to each well. The plate was returned to the 37° C. incubator, and its OD at 490 nm was read each hour until an OD of approximately 1.5 was reached. The net OD increase was calculated by subtracting the pre-substrate OD reading.
The impact of the drug on the cells was calculated by comparing the OD at different concentrations in relation to the OD of the control wells (without the drug).

[6] = test system: SKMEL-28 (melanoma); experiment: Cell growth/viability assay, calcitriol with or without chemotherapy drug; assay type: cell-based
[7] = test system: NIH-3T3 (immortalized fibroblast); experiment: as above; assay type: cell-based
[8] = test system: HEKa cells; experiment: Pretreatment of cells with calcitriol, cell viability assay with chemotherapy drugs; assay type: cell-based, human
Excerpt: Then these pretreated cells were utilized to set up the cell-based assay. […] The four cancer cell lines continued to grow and were not altered in their general morphological appearances. […] For this cell line, a new batch of cells were started and were exposed to only a single passage in the presence of calcitriol, prior to testing in the presence of the chemotherapy drugs. Three commonly used chemotherapy drugs (doxorubicin, cisplatin and erlotinib) were selected to evaluate calcitriol treated cells. […] In these experiments, the commercial drugs were serially diluted, starting at a concentration 4-times higher than the final desired concentration for cell incubation. […] The assay was carried out according to the previously described method in order to provide consistency and allow direct comparison. The result was based upon measurement of the total number of viable cells. […] Thus, a topical application of calcitriol could be applied at the same time as the systemic delivery of the chemotherapy. A staged application is not required.

[9] = in vivo; details: Gottingen, minipig, topical
Excerpt: At the end of the study, the skin was reflected from a ventral midline incision, and sections of treated and untreated skin were collected and preserved. Sections of each 6×6 cm dosing site were first thoroughly surface washed with a mild soap and water mixture (e.g., 1% Ivory Soap in water or equivalent) to remove any residual topical test formulation. The washed skin sections were then wiped clean with ethanol, and were excised down to and including the adipose layer. If the area to be excised is larger than the dosed area, the dosed area was demarked with indelible ink to delineate the skin area that was dosed. The 1.5 cm×1.5 cm sections were laid flat, wrapped in two layers of Saran wrap (or equivalent) and flash frozen in liquid nitrogen. The samples were stored at −70° C. and shipped on dry ice via overnight courier for analysis. Each skin section was identified as appropriate (e.g., animal identification, study number, date, etc).
Upon arrival at the analysis site, skin sections were placed in water tight plastic bag and thawed by emersion in warm water (˜30° C.-35° C.). Each skin section was gently rinsed with distilled de-ionized water to remove any residual test article and blood. All subcutaneous tissue (e.g., adipose) was removed by manual scalpel ablation. Within the central region of the dosed area, four individual 1 cm^2 circles (replicates) were demarked, and each site was subsequently identified and the actual area recorded. The replicate test sites were then excised from the skin sheet using a 1 cm^2 punch. The skin sections were weighed and the weight recorded. […] This process removed the stratum corneum and any residual surface dose.
Following tape stripping, the skin was separated into epidermis (sans stratum corneum, simply referred to herein after as “epidermis”) and dermis by heat exposure to 60° C. for approximately 1-1.5 minutes. The skin layers were then teased apart using fine-tipped forceps or scalpel. The epidermis and dermis were weighed and the weight recorded.
For extraction, all skin samples were extracted in 1 mL of absolute ethanol (Sigma-Aldrich, USP/NF Grade). Tape strips were extracted in 5 mL acetonitrile (EMD, HPLC Grade). All extractions were conducted at room temperature for approximately 24 hours. An amount of 500 μL of the tape strip extract was dried by vacuum centrifugation and reconstituted in 100 μL absolute acetonitrile. The epidermal extract was also dried and reconstituted in 100 μL 80:20 ethanol:water.
Lower limit of detection is estimated at 0.4 ng/mL.
However, the concentration reported, as μg/mg, is determined by the differential total sample weight before layer separation minus the weights of the epidermis and dermis for that sample (rather than by actual weight due to its adherence to the tape strips). Epidermal and dermal samples are reported as tissue concentration (ng/mg) using the amount measured from the sample divided by actual wet weight of the skin layer.

## C=C1/C(=C\C=C2/CCC[C@]3(C)[C@@H]([C@H](C)CCCC(C)(C)O)CC[C@@H]23)C[C@@H](O)C[C@@H]1O [Calcitriol, 1,25-dihydroxyvitamin D3]
[1]
  effect of calcitriol on cell growth: no significant growth promoting or growth inhibiting effects
  effect on the cytotoxic effect of Doxorubicin: did not appear to appreciably alter
[2]; at 16 hrs
  SLC1A1 mRNA Regulation Pattern: upregulated
[2]; at 48 hours
  KCNN4 mRNA Regulation Pattern: upregulated at 48
[2]; until 24 hours
  KCNB2 mRNA Regulation Pattern: upregulated until
[3]
  protection of the cancer cells from chemotherapy by topical calcitriol: have not shown protection of the cancer cells
Female Minipigs, 1 μg/mL dermal twice daily 7 days
  Stratum Corneum, Calcitriol Recovered, Mean ± SD: 0.76 ± 1.3 (3) ng/cm2
Female Minipigs, 3 μg/mL dermal twice daily 7 days
  Stratum Corneum, Calcitriol Recovered, Mean ± SD: 1.12 ± 1.49(3) ng/cm2
Female Minipigs, 10 μg/mL dermal twice daily 7 days
  Stratum Corneum, Calcitriol Recovered, Mean ± SD: 1.65 ± 1.80 (3) ng/cm2
Female Minipigs, 30 μg/mL dermal twice daily 7 days
  Stratum Corneum, Calcitriol Recovered, Mean ± SD: 20.2 ± 11.7 (3) ng/cm2
Male Minipigs (1 animal), 100 μg/mL dermal twice daily 7 days
  Stratum Corneum, Calcitriol Recovered, Mean ± SD: 118.1 ± 11.4 (1) ng/cm2
Male Minipigs, 1 μg/mL dermal twice daily 7 days
  Stratum Corneum, Calcitriol Recovered, Mean ± SD: 56.1 ± 17.4 (3) ng/cm2
Male Minipigs, 3 μg/mL dermal twice daily 7 days
  Stratum Corneum, Calcitriol Recovered, Mean ± SD: 62.4 ± 7.91 (3) ng/cm2
Male Minipigs, 10 μg/mL dermal twice daily 7 days
  Stratum Corneum, Calcitriol Recovered, Mean ± SD: 59.6 ± 14.1 (3) ng/cm2
Male Minipigs, 30 μg/mL dermal twice daily 7 days
  Stratum Corneum, Calcitriol Recovered, Mean ± SD: 54.6 ± 32.5 (3) ng/cm2
minipigs, calcitriol concentrations from 3 to 100 μg/mL
  applied dose correlation to tissue level in the epidermis: near linear increase
[4]; regulated in two independent experiments
  HSPB1 (Heat shock 27 kDa protein 1) mRNA Regulation Pattern: Down regulated at 48 hours
[4]; two independent experiments
  DNAJC6 (DnaJ (Hsp40) homolog, subfamily C, member 6) mRNA Regulation Pattern: Downregulated
  HSF4 (Heat shock transcription factor 4) mRNA Regulation Pattern: Upregulated at 48 hours
  HSPA2 (Heat shock 70 kDa protein 2) mRNA Regulation Pattern: Upregulated at 48 hours
[5]
  protective effect against 5-FU: mild protective effect
  protective effect against Paxlitaxol (paclitaxel): some protective effects
  protective effect against gemcitabine: mild protective effect
  protective effect against irinotecan: positive protective effect
  protective effect against tamoxifen: weak
  protective effect against the cytotoxic effect of doxorubicin: did not appear to provide a significant protective effect
[5]; low dosage levels
  protection against alkylating agents cisplatin and carboplatin: moderate level of protection
[5]; low drug dosage levels
  protective effect against kinase inhibitor drugs (erlotinib, gefitinib, sorafenib, dasatinib, staurosporin): protected the HEKa cells
[6]; SKMEL-28
  effect of calcitriol on cell growth: no significant growth promoting or growth inhibiting effects
  effect on the cytotoxic effect of Doxorubicin: did not appear to appreciably alter
[6]; SKMEL-28, 0.1 μg/mL calcitriol
  5-FU ED50 curve with versus without calcitriol: not significantly different
[7]
  effect of calcitriol on cell growth: no significant growth promoting or growth inhibiting effects
  effect on the cytotoxic effect of Doxorubicin: did not appear to appreciably alter
[8]; 0.1 μg/mL calcitriol for two cell passages
  growth of HEKa cells after prolonged calcitriol exposure: stopped growing
[8]; 0.1 μg/mL calcitriol, doxorubicin, cisplatin, erlotinib
  chemoprotective effect, pre-treatment group versus simultaneous treatment group: nearly identical
[9]; female, stratum corneum (tape strips), 1 μg/mL
  concentration at 7 days: 30 ± 50 ng/g
[9]; female, stratum corneum (tape strips), 3 μg/mL
  concentration at 7 days: 40 ± 60 ng/g
[9]; female, stratum corneum (tape strips), 10 μg/mL
  concentration at 7 days: 50 ± 40 ng/g
[9]; female, stratum corneum (tape strips), 30 μg/mL
  concentration at 7 days: 640 ± 370 ng/g
[9]; female, 1 μg/mL
  concentration at 7 days: 0 ng/g
[9]; female, 3 μg/mL
  concentration at 7 days: 0 ng/g
[9]; male, stratum corneum (tape strips), 1 μg/mL
  concentration at 7 days: 1540 ± 790 ng/g
[9]; male, stratum corneum (tape strips), 3 μg/mL
  concentration at 7 days: 1630 ± 250 ng/g
[9]; male, stratum corneum (tape strips), 10 μg/mL
  concentration at 7 days: 2020 ± 390 ng/g
[9]; male, stratum corneum (tape strips), 30 μg/mL
  concentration at 7 days: 1510 ± 890 ng/g
[9]; male, stratum corneum (tape strips), 100 μg/mL
  concentration at 7 days: 4520 ± 1210 ng/g

— patent US9901637B2, “Vitamin D3 and analogs thereof for treating alopecia” (priority 2009, dated 2018)
